Results on 19 molecules are retold here after patent publication US6831199B1, “Pyrimidine compounds and derivatives thereof” (G. D. Searle & Co., priority 1995, dated 2004).

The structures appear in SMILES notation. Structures can show the parent of a compound that is named as a salt. Where two headings read alike, the source gives them in different places.

The test system of one experiment is platelet rich plasma. The experiment can be described thus: Human platelet rich plasma assay (ADP induced platelet aggregation). The note with it: Homo sapiens, Platelet, ADP induced platelet aggregation in human platelet rich plasma; read-out: Human PRP. The class given is cell-based. The procedure, abridged:
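Citrated platelet-rich plasma from aspirin-free healthy human donors was stirred at 37 °C and preincubated with compound for 1 min. Aggregation was then triggered with ADP (added as a 200 uM solution) and recorded photometrically for 3 min. Dose–response curves were built from % inhibition of the maximal saline-control response.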

The subject of the next experiment is M21 human melanoma cells. The experiment can be described thus: M21 melanoma cell adhesion assay (αvβ3-dependent adhesion to human fibrinogen-coated plates). The class given is cell-based. The note with it: read-out: M21 Melanoma Cells IC50. As to the method: M21 MELANOMA CELL ADHESION ASSASY
This assay involves an αvβ3-dependent adhesion of M21 human melanoma cells to human fibrinogen-coated plastic tissue culture dishes.
Fibrinogen was purified from human plasma. Fibronectin and plasminogen were eliminated from the preparation by passing the sample over gelatin-sepharose 4B and lysine-sepharose 4B resins, respectively. The fibrinogen is diluted to 10 μg/mL in coating buffer ([…] Tris-HCl, 150 mM NaCl, pH 7.4). 100 μL of diluted fibrinogen is added to each well of a 96-well Immulon 2 microtiter plate (Dynatech; Chantilly, Va.) and allowed to coat overnight at 4° C. Plates are blocked with 1% BSA (Miles/Pentex; Kankakee, Ill.) in adhesion buffer (Hank's balanced salt solution without Ca^++ or Mg^++ [HBSS−−], 50 mM Hepes, 1 mg/mL BSA, pH 7.4) for 1 hour at 37° C.
M21 human melanoma cells were provided by Dr. J. Smith, La Jolla Cancer Research Institute. M21 cells are harvested from tissue culture flasks by washing with HBSS−− and adding cell dissociation solution (Sigma) and incubating for 5 minutes at 37° C. Harvested cells are washed 3 times with adhesion assay buffer containing 200 μM Mn^++. Cells are counted and suspended to a density of 2×10^6/mL in adhesion assay buffer containing 200 μM Mn^++. M21 cells are pre-incubated with antagonists of αvβ3 for 30 minutes at room temperature. Following the pre-incubation, the solutions containing a mixture of cells and antagonists are added to each well of the microtiter plate and allowed to bind for 30 minutes at 37° C.
Following adhesion, plates are gently washed 3 times with 200 μL of wash buffer (50 mM Tris-HCl, 150 mM NaCl, pH 7.4) using large bore pipet tips. Plates are briefly blotted dry and 100 μL of cell lysis buffer (50 mM sodium acetate, pH 5.0, 0.5% Triton X-100, 0.3 mg/mL p-nitrophenyl phosphate [Sigma] is added to each well. Plates are incubated for 60 minutes at 37° C. and 50 μL of 1N NaOH is added to stop the reaction. The absorbance of the wells at […] is read using an automatic plate reader.

In experiment [1] the target is T1, Human vitronectin receptor (αvβ3) (Homo sapiens, UniProt P05106+P06756).
T1 construct: Human vitronectin receptor (αvβ3) was purified from human placenta; from tissue; host or cells: human placenta
The experiment can be described thus: Vitronectin adhesion assay (solid phase receptor assay, competition with biotinylated vitronectin). Format: binding. The note with it: read-out: AvB3 IC50. The essentials: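 Purified human αvβ3 coated overnight at 4 °C in TBS with 1.0 mM Ca++, Mg++, Mn++, pH 7.4; compounds (top final 1.0×10^−4 M) competed with 1 nM biotinylated vitronectin for 2 h at room temperature. Bound ligand detected by HRP anti-biotin/OPD at A450; values normalized to no-competitor controls, four-parameter curve fit.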

`O=C(O)CC(NC(=O)CNC(=O)c1cccc(NC(=O)NCc2ccccc2)c1)c1cccnc1` (racemic) [Example 47, (±)β-[[2-[[[3-[[[(phenylmethyl)amino]carbonyl]amino]phenyl]carbonyl]amino]acetyl]amino]pyridine-3-propanoic acid, hydrochloride salt]: the IC50 is > 200000 nM in the experiment on platelet rich plasma; 1.18 nM in the experiment on M21 human melanoma cells (Homo sapiens, M21); 0.86 nM in experiment [1].

Turning to `N=C(N)Nc1cccc(C(=O)NCC(=O)NC(CC(=O)O)c2ccoc2)c1` (racemic) [Example 52, (±)β-[[2-[[[3-[(aminoiminomethyl)amino]phenyl]carbonyl]amino]acetyl]amino]furan-3-propanoic acid, trifluoroacetate salt], the IC50 was > 200000 nM in the experiment with platelet rich plasma; 11.7 nM in the experiment on M21 human melanoma cells (Homo sapiens, M21); 3.62 nM in experiment [1].

On to `C#C[C@H](CC(=O)O)NC(=O)CNC(=O)c1cccc(NC(=N)N)c1` [Example 45, 3S-[[2-[[[3-[(aminoiminomethyl)amino]phenyl]carbonyl]amino]acetyl]amino]-4-pentynoic acid, hydrochloride salt], for which the IC50 with platelet rich plasma is 167000 nM; with M21 human melanoma cells (hydrochloride salt), 2.54 nM; in experiment [1], 0.69 nM.

`O=C(O)CC(NC(=O)CNC(=O)c1cccc(NC2=NCCCCC2)c1)c1cccnc1` (racemic) [Example 12, (±)β-[[2-[[[3-[(3,4,5,6-tetrahydro-2H-azepin-7-yl)amino]phenyl]carbonyl]amino]acetyl]amino]pyridine-3-propanoic acid, bis(trifluoroacetate)salt]: the IC50 is > 200000 nM in the experiment on platelet rich plasma; 9.32 nM in the experiment with M21 human melanoma cells (Homo sapiens, M21); 1.1 nM in experiment [1].

Regarding `NC(=S)Nc1cccc(C(=O)NCC(=O)NC(CC(=O)O)c2cccnc2)c1` (stereo not drawn) [Example 114, β-[[2-[[[3-[(aminothioxomethyl)amino]phenyl]carbonyl]amino]acetyl]amino]pyridine-3-propanoic acid, trifluoroacetate salt], the IC50 in the experiment with platelet rich plasma was > 200000 nM; in the experiment on M21 human melanoma cells (Homo sapiens, M21), 200 nM; in experiment [1] it was 3.26 nM.

Consider `O=C(O)CC(NC(=O)CNC(=O)c1cccc(NC2=NCCCCC2)c1)c1ccc2c(c1)OCO2` (racemic) [Example 14, (±)β-[[2-[[[3-[(3,4,5,6-tetrahydro-2H-azepin-7-yl)amino]phenyl]carbonyl]amino]acetyl]amino]-1,3-benzodioxole-5-propanoic acid, TFA salt], for which the IC50 with platelet rich plasma is > 200000 nM; in the experiment with M21 human melanoma cells (Homo sapiens, M21), 5.42 nM; in experiment [1], 1.62 nM.

On to `N=C(NCc1ccccc1)Nc1cccc(C(=O)NCC(=O)NC(CC(=O)O)c2cccnc2)c1` (racemic) [Example 24, (±)β-[[2-[[[3-[[imino[(phenylmethyl)amino]methyl]amino]phenyl]carbonyl]amino]acetyl]amino]pyridine-3-propanoic acid, bis(trifluoroacetate)salt], for which the IC50 in the experiment on platelet rich plasma is > 200000 nM; in the experiment on M21 human melanoma cells (Homo sapiens, M21) it was 12.7 nM; in experiment [1], 0.91 nM.

For the molecule `N=C(N)Nc1cccc(C(=O)NCC(=O)NC(CC(=O)O)c2ccccc2)c1` (racemic) [Example 4, (±)β-[[2-[[[3-[(aminoiminomethyl)amino]phenyl]carbonyl]amino]acetyl]amino]benzene-propanoic acid, trifluoroacetate salt], the IC50 was > 200000 nM in the experiment on platelet rich plasma; 3.3 nM with M21 human melanoma cells (Homo sapiens, M21); 3.17 nM in experiment [1].

With `N=C(N)Nc1cccc(C(=O)NCC(=O)NC(CC(=O)O)c2cccs2)c1` (racemic) [Example 61, (±)β-[[2-[[[3-[(aminoiminomethyl)amino]phenyl]carbonyl]amino]acetyl]amino]thiophene-2-propanoic acid, trifluoroacetate salt], the IC50 was > 200000 nM in the experiment on platelet rich plasma; 228 nM in the experiment with M21 human melanoma cells (Homo sapiens, M21); 1.76 nM in experiment [1].

Take `Cc1ccc(S(=O)(=O)NCC(CC(=O)O)NC(=O)CNC(=O)c2cccc(NC(=N)N)c2)cc1` (stereo not drawn) [Example 65, 3-[[2-[[[3-[(aminoiminomethyl)amino]phenyl]carbonyl]amino]acetyl]amino]-4-[[(4-methylphenyl)sulfonyl]amino]butanoic acid, trifluoroacetate salt]: the IC50 in the experiment with platelet rich plasma was > 200000 nM; with M21 human melanoma cells (Homo sapiens, M21) it was 13.8 nM; in experiment [1], 9.7 nM.

With `N=C(N)Nc1cccc(C(=O)NCC(=O)NC(CC(=O)O)c2cc(C(F)(F)F)cc(C(F)(F)F)c2)c1` (racemic) [Example 36, (±)β-[[2-[[[3-[(aminoiminomethyl)amino]phenyl]carbonyl]amino]acetyl]amino]-3,5-bis(trifluoromethyl)benzenepropanoic acid, trifluoroacetate salt], the IC50 is > 200000 nM in the experiment on platelet rich plasma; 143 nM in the experiment on M21 human melanoma cells (Homo sapiens, M21); 14.6 nM in experiment [1].

With `Cc1ccc(S(=O)(=O)CCC(CC(=O)O)NC(=O)CNC(=O)c2cccc(NC(=N)N)c2)cc1` (racemic) [Example 67, (±)3-[[2-[[[3-[(aminoiminomethyl)amino]phenyl]carbonyl]amino]acetyl]amino]-5-[(4-methylphenyl)sulfonyl]pentanoic acid, trifluoroacetate salt], the IC50 is > 200000 nM in the experiment with platelet rich plasma; 4.08 nM in the experiment with M21 human melanoma cells (Homo sapiens, M21); 2.05 nM in experiment [1].

As to `C#C[C@@H](CC(=O)O)NC(=O)CNC(=O)c1cccc(NC(=N)N)c1` [Example 43, 3R-[[2-[[[(3-[(aminoiminomethyl)amino]phenyl]carbonyl]amino]acetyl]amino]-4-pentynoic acid, hydrochloride salt], the IC50 in the experiment on platelet rich plasma is > 200000 nM; in the experiment with M21 human melanoma cells (hydrochloride salt), 188 nM; in experiment [1], 28.3 nM.

With `N=C(N)Nc1cccc(C(=O)NCC(=O)NC(CC(=O)O)c2ccc3ccccc3c2)c1` (racemic) [Example 56, (±)β-[[2-[[[3-[(aminoiminomethyl)amino]phenyl]carbonyl]amino]acetyl]amino]naphthalene-2-propanoic acid, trifluoroacetate salt], the IC50 is > 200000 nM in the experiment on platelet rich plasma; 6.87 nM in the experiment on M21 human melanoma cells (Homo sapiens, M21); 3.12 nM in experiment [1].

In the case of `O=C(O)CC(NC(=O)CNC(=O)c1cccc(NC2=NCCC2)c1)c1cccnc1` (stereo not drawn) [Example 17, β-[[2-[[[3-[(3,4-dihydro-2H-pyrrol-5-yl)amino]phenyl]carbonyl]amino]acetyl]amino]pyridine-3-propanoic acid, bis(trifluoroacetate)salt], the IC50 with platelet rich plasma is > 200000 nM; with M21 human melanoma cells (Homo sapiens, M21), 3.64 nM; in experiment [1], 2.66 nM.

Regarding `NC(=O)Nc1cccc(C(=O)NCC(=O)NC(CC(=O)O)c2cccnc2)c1` (stereo not drawn) [Example 46, β-[[2-[[[3-(aminocarbonylamino)phenyl]carbonyl]amino]acetyl]amino]pyridine-3-propanoic acid, hydrochloride salt], the IC50 is > 200000 nM in the experiment on platelet rich plasma; 147 nM in the experiment with M21 human melanoma cells (Homo sapiens, M21); 5.34 nM in experiment [1].

Consider `N=C(N)Nc1cc(C(=O)NCC(=O)NC(CC(=O)O)c2cccnc2)c2ccccc2c1` (racemic) [Example 8, (±)β-[[2-[[[3-[(aminoiminomethyl)amino]naphthalen-1-yl]carbonyl]amino]acetyl]amino]pyridine-3-propanoic acid, bis(trifluoroacetate)salt], for which the IC50 was determined as 73300 nM with platelet rich plasma; 0.28 nM in the experiment on M21 human melanoma cells (Homo sapiens, M21); 0.69 nM in experiment [1].

As to `N=C(N)Nc1cccc(C(=O)NCC(=O)NC(CCS(=O)(=O)c2ccccc2C(=O)O)CC(=O)O)c1` (racemic) [60(C), (±)2-[3-[[2-[[[3-[(aminoiminomethyl)amino]phenyl]carbonyl]amino]acetyl]amino]-4-carboxybutyl]sulfonyl]benzoic acid, trifluoroacetate], the IC50 in the experiment on platelet rich plasma was > 200000 nM; in the experiment with M21 human melanoma cells (Homo sapiens, M21), 0.74 nM; in experiment [1] it was 0.73 nM.

As to `Cc1ccc(O)c(C(CC(=O)O)NC(=O)CNC(=O)c2cccc(NC(=N)N)c2)c1` (racemic) [Example 88, (±)β-[[2-[[[3-[(aminoiminomethyl)amino]phenyl]carbonyl]amino]acetyl]amino]-2-hydroxy-5-methylbenzenepropanoic acid, trifluoroacetate salt], the IC50 was > 200000 nM in the experiment on platelet rich plasma; 52.3 nM in the experiment with M21 human melanoma cells (Homo sapiens, M21); 8.44 nM in experiment [1].
